Earlier results as cited in patent US20240261298A1, “METHODS OF TREATING DEPRESSION AND ANXIETY” (Woolsey Pharmaceuticals, Inc., priority 2021, published 2024).
Where a name gives a salt, the structure may show the parent alone.

Legend:
[1] = 1 hydroxy (M3) metabolite, in vivo
adult mice = conditions: exposure to fasudil

half-life [1]	Compound	anxiety-like behaviors (adult mice)
about 8 hours	O=S(=O)(c1cccc2c(O)nccc12)N1CCCNCC1 [M3]	
	O=S(=O)(c1cccc2cnccc12)N1CCCNCC1 [Fasudil, Hexahydro-1-(5-isoquinolinesulfonyl)-1H-1,4-diazepine monohydrochloride hemihydrate]	induces anxiety-like behaviors
